Source: patent US7973219B2, “Method for producing transgenic plants resistant to weed control compounds which disrupt the porphyrin pathways of plants” (Sumitomo Chemical Company, Limited, priority 1998, dated 2011)
Where two headings read alike, the source gives them in different places.

Assays:
[1] = test system: E. coli BT3/pACYCSP+pTVBCH strain; test: Growth of E. coli BT3/pACYCSP+pTVBCH (bchH) with herbicidal compound; type: cell-based; conditions: Escherichia coli, 18 h, 18 hours culture, Table 2
Text: According to the description of Gibson, L. C. D. et al., Proc. Natl. Acad. Sci. USA, 92; p 1941 (1995), the DNA fragment containing bchH gene prepared in Example 1 was digested with the restriction enzymes NdeI and BglII. The resultant DNA fragment was inserted between NdeI restriction site and BamHI restriction site of expression vector pET11a (manufactured by Stratagene) to obtain plasmid pETBCH (FIG. 1). This plasmid pETBCH was introduced into E. coli BL21(DE3) strain competent cells (manufactured by Stratagene) according to the manual attached to the competent cells to obtain E. coli BL21(DE3)/pETBCH strain. The strain was inoculated into 1.5 ml LB liquid culture medium (1% tryptone, 0.5% yeast extract, 0.5% NaCl) containing 100 μg/ml ampicillin in a tube (14×10 mm), and the tube was covered with aluminum foil (hereinafter referred to as dark conditions), cultured with shaking at 37° C. under light of fluorescent lamp (about 8000 lux). When the absorbance at 600 nm of the liquid culture medium became about 0.6, isopropyl β-D-thiogalactopyranoside (IPTG) was added to the liquid culture medium so that the final concentration was 0.4 mM, and the culture was continued for about additional 20 hours. […] In contrast to this, when E. coli BL21(DE3)/pETBCH strain was cultured according to the same manner (with IPTG) except that the tube was not covered with aluminum foil (hereinafter referred to as light conditions), E. coli grew and turned red as above. […]
These strains were inoculated into YPT medium containing 10 or 1 ppm of the PPO inhibitory-type herbicidal compound represented by the above Structure 8, 100 μg/ml ampicillin, 15 μg/ml chloramphenicol, 10 μg/ml kanamycin, 10 μg/ml hemin and 50 μg/ml aminolevulinic acid, cultured under dark conditions or light conditions according to the same manner as in Example 2. Then, 18 hours after initiation of culture, the absorbance of the liquid culture medium was measured at 600 nm. By taking the absorbance of the medium without the herbicidal compound as 1, the relative value of the absorbance of the medium containing the herbicidal compound was calculated.
Further, these strains were inoculated into YPT medium containing PPO inhibitory-type herbicidal compounds represented by the above Structures 1, 14, 15, 18-22, 29, 32, 33, 34 and 36, respectively, 100 μg/ml ampicillin, 15 μg/ml chloramphenicol, 10 μg/ml kanamycin, 10 μg/ml hemin and 50 μg/ml aminolevulinic acid, cultured under dark conditions or light conditions similar to the Example 2. Then, 18 hours after initiation of culture, the absorbance of liquid culture medium was measured at 600 nm. By taking the absorbance of the medium without the herbicidal compound as 1, the relative value of the absorbance of the medium containing the herbicidal compound was calculated.

[2] = test system: E. coli BT3/pACYCSP+pHASYS4 strain; test: Growth of E. coli BT3/pACYCSP+pHASYS4 with herbicidal compound; type: cell-based, Escherichia coli; conditions: 1 ppm, 18 hours culture, Table 16
Text: According to the description of Gibson, L. C. D. et al., Proc. Natl. Acad. Sci. USA, 92; p 1941 (1995), the DNA fragment containing bchH gene prepared in Example 1 was digested with the restriction enzymes NdeI and BglII. The resultant DNA fragment was inserted between NdeI restriction site and BamHI restriction site of expression vector pET11a (manufactured by Stratagene) to obtain plasmid pETBCH (FIG. 1). This plasmid pETBCH was introduced into E. coli BL21(DE3) strain competent cells (manufactured by Stratagene) according to the manual attached to the competent cells to obtain E. coli BL21(DE3)/pETBCH strain. The strain was inoculated into 1.5 ml LB liquid culture medium (1% tryptone, 0.5% yeast extract, 0.5% NaCl) containing 100 μg/ml ampicillin in a tube (14×10 mm), and the tube was covered with aluminum foil (hereinafter referred to as dark conditions), cultured with shaking at 37° C. under light of fluorescent lamp (about 8000 lux). When the absorbance at 600 nm of the liquid culture medium became about 0.6, isopropyl β-D-thiogalactopyranoside (IPTG) was added to the liquid culture medium so that the final concentration was 0.4 mM, and the culture was continued for about additional 20 hours. […]

[3] = read-out: Relative absorbance, in the dark
[4] = read-out: Relative absorbance, in the light

## C#CCOc1cc(N2C(=O)C3=C(CCCC3)C2=O)c(F)cc1Cl [Structure 8]
[1]; [3]
  activity at 1 ppm: 106%
  activity at 10 ppm: 90%
[1]; [4]
  activity at 1 ppm: 77%
  activity at 10 ppm: 80%
[2]; in the dark
  Relative absorbance: 1.0
[2]; in the light
  Relative absorbance: 0.91
